Data published in paper PMC2099433, “The binding site for neohesperidin dihydrochalcone at the human sweet taste receptor” (BMC Structural Biology, 2007).
Where a SMILES comes first, the peptide text is derived from it.

Legend:
[1] = molecular target: T1, hTAS1R2/hTAS1R3 (Homo sapiens, UniProt Q7RTX0+Q8TE23); test: Calcium response (FLIPR) of HEK293T-G16Gust44 cells, wild type receptor; assay type: cell-based; details: for EC50 / Emax: wt receptor; for EC50: average ± SD, at least three experiments; for Emax: read-out: maximal signal (% of wt)
T1 construct: expressed in transfected cells; host or cells: HEK293T cells stably expressing G16Gust44
T1 sequence (Q8TE23 20-839): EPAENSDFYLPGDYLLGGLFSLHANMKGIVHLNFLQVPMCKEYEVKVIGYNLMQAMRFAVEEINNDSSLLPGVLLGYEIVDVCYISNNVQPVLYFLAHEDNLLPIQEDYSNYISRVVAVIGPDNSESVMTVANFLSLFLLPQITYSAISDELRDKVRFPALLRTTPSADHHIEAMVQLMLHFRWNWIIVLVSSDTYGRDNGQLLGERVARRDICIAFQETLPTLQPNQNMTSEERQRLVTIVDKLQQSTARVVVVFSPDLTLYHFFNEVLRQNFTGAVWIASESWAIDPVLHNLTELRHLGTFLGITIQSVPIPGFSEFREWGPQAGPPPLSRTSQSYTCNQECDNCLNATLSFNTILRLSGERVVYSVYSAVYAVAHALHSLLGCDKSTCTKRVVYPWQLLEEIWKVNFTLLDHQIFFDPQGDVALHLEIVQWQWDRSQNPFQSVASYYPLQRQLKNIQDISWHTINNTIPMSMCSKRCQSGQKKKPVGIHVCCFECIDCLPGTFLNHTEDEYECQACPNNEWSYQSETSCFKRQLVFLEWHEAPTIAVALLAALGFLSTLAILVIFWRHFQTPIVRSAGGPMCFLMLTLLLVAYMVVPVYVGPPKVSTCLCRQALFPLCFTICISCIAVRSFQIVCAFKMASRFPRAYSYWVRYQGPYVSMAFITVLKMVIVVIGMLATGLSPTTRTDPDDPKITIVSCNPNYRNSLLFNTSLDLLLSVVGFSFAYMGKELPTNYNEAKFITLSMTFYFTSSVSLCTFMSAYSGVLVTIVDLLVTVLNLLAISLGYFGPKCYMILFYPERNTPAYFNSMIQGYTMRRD
T1 sequence (Q7RTX0 21-852): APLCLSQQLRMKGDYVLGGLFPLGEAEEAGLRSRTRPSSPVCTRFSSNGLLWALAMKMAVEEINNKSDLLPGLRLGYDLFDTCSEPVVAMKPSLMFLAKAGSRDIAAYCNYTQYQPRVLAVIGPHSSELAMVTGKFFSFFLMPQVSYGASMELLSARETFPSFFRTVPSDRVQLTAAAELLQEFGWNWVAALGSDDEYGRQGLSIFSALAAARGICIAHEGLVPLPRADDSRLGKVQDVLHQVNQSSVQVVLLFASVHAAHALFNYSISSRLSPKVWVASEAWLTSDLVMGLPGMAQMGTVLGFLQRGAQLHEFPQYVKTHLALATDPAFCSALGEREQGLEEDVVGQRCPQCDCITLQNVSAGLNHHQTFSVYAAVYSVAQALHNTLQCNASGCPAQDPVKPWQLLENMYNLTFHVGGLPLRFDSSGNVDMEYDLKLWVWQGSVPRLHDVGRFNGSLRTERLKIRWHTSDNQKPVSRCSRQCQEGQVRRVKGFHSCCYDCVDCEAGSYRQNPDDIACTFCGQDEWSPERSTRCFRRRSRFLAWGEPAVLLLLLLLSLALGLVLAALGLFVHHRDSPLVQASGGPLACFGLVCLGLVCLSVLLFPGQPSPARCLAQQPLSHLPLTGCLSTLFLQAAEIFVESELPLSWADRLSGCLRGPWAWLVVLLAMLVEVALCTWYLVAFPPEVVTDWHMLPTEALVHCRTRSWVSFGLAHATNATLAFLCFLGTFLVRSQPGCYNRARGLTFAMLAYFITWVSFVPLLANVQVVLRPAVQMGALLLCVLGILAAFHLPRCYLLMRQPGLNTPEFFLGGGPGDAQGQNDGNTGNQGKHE
Source text: In order to elucidate the putative binding site for NHDC, we cotransfected mixtures of plasmid DNAs for the rat and human TAS1R2 and TAS1R3 receptor subunits in HEK293T cells stably expressing the chimeric G-protein G16Gust44 and measured cellular calcium responses by fluorometry following bath application of various sweet tasting compounds. […].
The cDNAs for TAS1Rs tagged at the C-terminus with the herpes simplex virus glycoprotein D (HSV) were transiently transfected into HEK293T cells stably expressing the chimeric G-protein subunit G16Gust44 [44] using Lipofectamine 2000 (Invitrogen, Carlsbad, CA) according to the manufacturer's protocol. 3–4 hours after transfection, DMEM was replaced by low-glucose DMEM supplemented with GlutaMAX and 10% dialyzed FBS (Invitrogen, Carlsbad, CA). 24 h post transfection, cells were loaded for 1 h with the calcium sensitive dye Fluo4-AM (2 μg/ml in DMEM, Molecular Probes, Carlsbad, CA). Cells were washed 3x in solution C1 (130 mM NaCl, 5 mM KCl, 10 mM Hepes, 2 mM CaCl2, and 5 mM Glucose, pH 7,4). We monitored calcium mobilization following receptor stimulation with sweet tastants by an automated fluorometric imaging plate reader (FLIPR, Molecular Devices, Sunnyvale, CA). Compounds used as stimuli (Sigma-Aldrich, St. Louis, MO; Merck, Whitehouse Station, NJ) were dissolved in C1 solution. All data were collected from at least three independent experiments carried out in duplicate. The obtained calcium signals were corrected for the response of mock transfected cells and normalized to the fluorescence of cells prior to the application of the stimulus using ΔF/F = (F-F0)/F0. […]

[2] = molecular target: T1, hTAS1R2/hTAS1R3; test: Concentration-response curves of sweeteners in the presence of different lactisole concentrations; assay type: cell-based; details: for increase of EC50 value by lactisole: presence vs absence of lactisole; for Hill slope: constant over tested lactisole concentrations

COc1ccc(CCC(=O)c2c(O)cc(O[C@@H]3O[C@H](CO)[C@@H](O)[C@H](O)[C@H]3O[C@@H]3O[C@@H](C)[C@H](O)[C@@H](O)[C@H]3O)cc2O)cc1O [NHDC, neohesperidin dihydrochalcone]
receptor activation ([1]; human sweet taste receptor): activates
EC50 [1]: 100 ± 60 µM
Emax [1]: 100%
EC50 ([2]; 0.0 μM lactisole): 0.2 ± 0.1 mM
Hill coefficient ([2]; 0.0 μM lactisole): 0.8
Hill coefficient ([2]; 50 μM lactisole): 1.2
Hill coefficient ([2]; 100 μM lactisole): 1.5
increase of EC50 value by lactisole [2]: ~ fourfold

CC1=CC(=O)NS(=O)(=O)O1 [acesulfame K]
EC50 ([2]; 0.0 μM lactisole): 0.12 ± 0.04 mM
Hill slope [2]: ~ 2

COC(=O)[C@H](Cc1ccccc1)NC(=O)[C@@H](N)CC(=O)O [aspartame] (HELM PEPTIDE1{D.F.[CO[*:1]]}$$$$V2.0)
EC50 [1]: 1300 ± 100 µM
Emax [1]: 100%
EC50 ([2]; 0.0 μM lactisole): 0.5 ± 0.1 mM
Hill slope [2]: ~ 2

O=S(=O)(O)NC1CCCCC1 [cyclamate]
EC50 [1]: 1900 ± 100 µM
EC50 ([2]; 0.0 μM lactisole): 2.2 ± 0.3 mM
Hill coefficient ([2]; 50 μM lactisole): 2.5
increase of EC50 value by lactisole [2]: ~ fourfold
